Patent US8551984B2, “Aminopyrimidines as SYK inhibitors” (Merck Sharp & Dohme Corp., priority 2009, dated 2013)

Target: recombinant human SYK (GST-hSYK fusion protein) (Homo sapiens, UniProt P43405)
Assay: biochemical
[1] = rhSYK Activity (IC50), recombinant human GST-SYK 5 pM, ATP 25 μM, biotinylated substrate peptide 250 nM, HTRF, 10-dose titration

From the text: Homogeneous Time-Resolved Fluorescence (HTRF) Assay for the Recombinant Human SYK Enzyme:

IC50 (rhSYK Activity, Table 116A)	further results	Structure (SMILES)
	IC50 (rhSYK Activity, Table 54B): < 100 nM	COC(=O)C1CC(O)(c2ncc(-c3cc(C)cc(Nc4nccc(C(F)(F)F)n4)c3)s2)CN1C(N)=O (stereo not shown) [54B-37]
	IC50 (rhSYK Activity, Table 54C): < 100 nM	OC1(c2ncc(-c3cccc(Nc4nccc(C(F)(F)F)n4)c3)s2)CCNC1 (stereo not shown) [54C-1]
	IC50 (rhSYK Activity, Table 61A): < 100 nM	Cc1cc(Nc2nccc(C(F)(F)F)n2)cc(-c2cnc(C(NS(C)(=O)=O)(C3CC3)C3CC3)s2)c1 [61A-1]
	IC50 (rhSYK Activity, Table 61A): 100 to 1000 nM	Cc1cc(Nc2nccc(C(F)(F)F)n2)cc(-c2cnc(C(N[S+]([O-])C(C)(C)C)(C3CC3)C3CC3)s2)c1 (stereo not shown) [61A-2]
	IC50 (rhSYK Activity, Table 61A): < 100 nM	Cc1cc(Nc2nccc(C(F)(F)F)n2)cc(-c2cnc(C(C)(C)N)s2)c1 [61A-3]
	IC50 (rhSYK Activity, Table 61A): < 100 nM	Cc1cc(Nc2nccc(C(F)(F)F)n2)cc(-c2cnc(C(C)(C)NS(C)(=O)=O)s2)c1 [61A-4]
	IC50 (rhSYK Activity, Table 65): < 100 nM	Cc1cc(Nc2nccc(C(F)(F)F)n2)cc(-c2cnc(C3(NC(=O)NC(N)=O)COC3)s2)c1 [65-1]
	IC50 (rhSYK Activity, Table 65): < 100 nM	COc1ccnc(Nc2cc(C)cc(-c3cnc(C4(NC(=O)NC(N)=O)CCC4)s3)c2)n1 [65-2]
	IC50 (rhSYK Activity, Table 65): < 100 nM	Cc1cc(Nc2ncccn2)cc(-c2cnc(C3(NC(=O)NC(N)=O)CCC3)s2)c1 [65-3]
	IC50 (rhSYK Activity, Table 65): < 100 nM	Cc1cc(Nc2nccc(C3CC3)n2)cc(-c2cnc(C3(NC(=O)NC(N)=O)CCC3)s2)c1 [65-4]
	IC50 (rhSYK Activity, Table 65): < 100 nM	Cc1cc(Nc2nccc(C(F)(F)F)n2)cc(-c2cnc(C3(NC(=O)NC(N)=O)CCNC(=O)CC3)s2)c1 (stereo not shown) [65-6]
	IC50 (rhSYK Activity, Table 65): < 100 nM	Cc1cc(Nc2ncc(Cl)c(C(F)(F)F)n2)cc(-c2cnc(C3(NC(=O)NC(N)=O)CCNC(=O)CC3)s2)c1 (stereo not shown) [65-7]
	IC50 (rhSYK Activity, Table 65): < 100 nM	COc1nc(Nc2cc(C)cc(-c3cnc(C4(NC(=O)NC(N)=O)CCC4)s3)c2)ncc1Cl [65-8]
	IC50 (hSYK Activity, table after Example 66): < 100 nM	CC(=O)NC1(c2ncc(-c3cc(C)cc(Nc4nccc(C(F)(F)F)n4)c3)s2)COC1 [66-1]
	IC50 (rhSYK Activity, table after Example 69): 100 to 1000 nM	Cc1cc(Nc2nccc(C(=O)N3CCOCC3)n2)cc(-c2cnc(C(C)(O)C(F)(F)F)s2)c1 (stereo not shown) [69-1]
	IC50 (rhSYK Activity, Table 74A): < 100 nM	Cc1cc(Nc2nccc(C(F)(F)F)n2)cc(-c2cnc(C(C)(C)S(N)(=O)=O)s2)c1 [74A-1]
	IC50 (rhSYK Activity, Table 74A): < 100 nM	CC(C)(c1ncc(-c2cccc(Nc3nccc(C(F)(F)F)n3)c2)s1)S(C)(=O)=O [74A-2]
	IC50 (rhSYK Activity, Table 74A): < 100 nM	CC(C)(c1ncc(-c2cccc(Nc3nccc(C(F)(F)F)n3)c2)s1)S(N)(=O)=O [74A-3]
	IC50 (rhSYK Activity, Table 74A): < 100 nM	COc1ccnc(Nc2cc(C)cc(-c3cnc(C(C)(C)S(N)(=O)=O)s3)c2)n1 [74A-4]
	IC50 (rhSYK Activity, Table 74A): < 100 nM	Cc1cc(Nc2ncc(F)c(C)n2)cc(-c2cnc(C(C)(C)S(N)(=O)=O)s2)c1 [74A-5]
	IC50 (rhSYK Activity, Table 74A): < 100 nM	Cc1cc(Nc2ncc(F)c(C3CC3)n2)cc(-c2cnc(C(C)(C)S(N)(=O)=O)s2)c1 [74A-6]
	IC50 (rhSYK Activity, Table 74A): < 100 nM	COc1nc(Nc2cc(C)cc(-c3cnc(C(C)(C)S(N)(=O)=O)s3)c2)ncc1Cl [74A-7]

IC50 (rhSYK Activity, Table 116A)	further results	Structure (SMILES)
	IC50 (rhSYK Activity, Table 74A): < 100 nM	COc1nc(Nc2cc(C)cc(-c3cnc(C(C)(C)S(N)(=O)=O)s3)c2)ncc1F [74A-8]
	IC50 (rhSYK Activity, Table 74A): < 100 nM	Cc1cc(Nc2ncc(Cl)c(C)n2)cc(-c2cnc(C(C)(C)S(N)(=O)=O)s2)c1 [74A-9]
	IC50 (rhSYK Activity, Table 74A): < 100 nM	CC(C)(c1ncc(-c2cc(Nc3nccc(C(F)(F)F)n3)cc(C(F)F)c2)s1)S(N)(=O)=O [74A-11]
	IC50 (rhSYK Activity, Table 74A): < 100 nM	Cc1cc(Nc2nccc(C)n2)cc(-c2cnc(C(C)(C)S(N)(=O)=O)s2)c1 [74A-12]
	IC50 (rhSYK Activity, Table 74A): < 100 nM	Cc1cc(Nc2nccc(C3CC3)n2)cc(-c2cnc(C(C)(C)S(N)(=O)=O)s2)c1 [74A-13]
	IC50 (rhSYK Activity, Table 74A): < 100 nM	COC(=O)CNS(=O)(=O)C(C)(C)c1ncc(-c2cc(C)cc(Nc3nccc(C(F)(F)F)n3)c2)s1 [74A-14]
	IC50 (rhSYK Activity, Table 74A): < 100 nM	Cc1cc(Nc2nccc(C(F)(F)F)n2)cc(-c2cnc(C(C)(C)S(=O)(=O)NCC(=O)O)s2)c1 [74A-15]
	IC50 [1]: 100 to 1000 nM	CC(=O)Nc1cc(Nc2nccc(OC3CCN(C(=O)OC(C)(C)C)CC3)n2)cc(-c2cnc(C3(O)CCC3)s2)c1 [109(1), tert-butyl 4-[2-({3-(acetylamino)-5-[2-(1-hydroxycyclobutyl)-1,3-thiazol-5-yl]phenylamino)pyrimidin-4-yl]oxy}piperidine-1-carboxylate]
	IC50 [1]: < 100 nM	CC(=O)Nc1cc(Nc2nccc(OC3CCNCC3)n2)cc(-c2cnc(C3(O)CCC3)s2)c1 [109(2), N-(3-[2-(1-hydroxycyclobutyl)-1,3-thiazol-5-yl]-5-{[4-(piperidin-4-yloxy)pyrimidin-2-yl]-amino}phenyl)acetamide]
	IC50 [1]: < 100 nM	Cc1cc(Nc2nccc(C3CC3)n2)cc(-c2cnc([C@]3(O)CC[C@@H](C(=O)O)CC3)s2)c1 [110(1), Cis-4-(5-(3-[(4-cyclopropylpyrimidin-2-yl)amino]-5-methylphenyl)-1,3-thiazol-2-yl)-4-hydroxycyclohexanecarboxylic acid]
1000 to 10000 nM		Cc1cc(Nc2nc(C)cc(C)n2)cc(-c2cnc([C@]3(O)CC[C@@H](O)CC3)s2)c1 [116A-1]
< 100 nM		Cc1cc(Nc2ncc(F)c(C)n2)cc(-c2cnc([C@]3(O)CC[C@@H](C(=O)O)CC3)s2)c1 [116A-2]
< 100 nM		Cc1cc(Nc2nccc(C(C)C)n2)cc(-c2cnc([C@]3(O)CC[C@@H](C(=O)O)CC3)s2)c1 [116A-3]
< 100 nM		Cc1cc(Nc2ncc(Cl)c(C)n2)cc(-c2cnc([C@]3(O)CC[C@@H](C(=O)O)CC3)s2)c1 [116A-4]
< 100 nM		COc1nc(Nc2cc(C)cc(-c3cnc([C@]4(O)CC[C@@H](C(=O)O)CC4)s3)c2)ncc1F [116A-5]
< 100 nM		Cc1cc(Nc2nccc(C(C)(C)C)n2)cc(-c2cnc([C@]3(O)CC[C@@H](C(=O)O)CC3)s2)c1 [116A-6]
< 100 nM		Cc1cc(Nc2nccc(OC(C)C)n2)cc(-c2cnc(C3(O)CCC(C(=O)O)CC3)s2)c1 (stereo not shown) [116A-7]
< 100 nM		COc1nc(Nc2cc(C)cc(-c3cnc(C4(O)CCC(C(=O)O)CC4)s3)c2)ncc1Cl (stereo not shown) [116A-8]
< 100 nM		Cc1cc(Nc2nccc(C(C)F)n2)cc(-c2cnc(C3(O)CCC(C(=O)OC(C)(C)C)CC3)s2)c1 (stereo not shown) [116A-10]
100 to 1000 nM		COc1nc(Nc2cc(C)cc(-c3cnc(C4(O)CCC(C(=O)OC(C)(C)C)CC4)s3)c2)ncc1F (stereo not shown) [116A-11]
100 to 1000 nM		Cc1cc(Nc2nccc(C(C)(C)C)n2)cc(-c2cnc(C3(O)CCC(C(=O)OC(C)(C)C)CC3)s2)c1 (stereo not shown) [116A-12]
< 100 nM		Cc1cc(Nc2nccc(C(F)(F)C(F)(F)F)n2)cc(-c2cnc(C3(O)CCC(C(=O)O)CC3)s2)c1 (stereo not shown) [116A-13]

IC50 (rhSYK Activity, Table 116A)	further results	Structure (SMILES)
100 to 1000 nM		COc1nc(Nc2cc(C)cc(-c3cnc(C4(O)CCC(C(=O)OC(C)(C)C)CC4)s3)c2)ncc1Cl (stereo not shown) [116A-14]
100 to 1000 nM		Cc1cc(Nc2nccc(-c3cccs3)n2)cc(-c2cnc(C3(O)CCC(C(=O)OC(C)(C)C)CC3)s2)c1 (stereo not shown) [116A-15]
< 100 nM		Cc1cc(Nc2nccc(C(F)F)n2)cc(-c2cnc(C3(O)CCC(C(=O)O)C(C)C3)s2)c1 (stereo not shown) [116A-18]
< 100 nM		Cc1cc(Nc2nccc(C(C)(C)C)n2)cc(-c2cnc(C3(O)CCC(C(=O)O)C(C)C3)s2)c1 (stereo not shown) [116A-20]
< 100 nM		Cc1cc(Nc2nccc(OC(C)C)n2)cc(-c2cnc(C3(O)CCC(C(=O)O)C(C)C3)s2)c1 (stereo not shown) [116A-21]
100 to 1000 nM		COC(=O)C1CCC(O)(c2ncc(-c3cc(C)cc(Nc4ncc(F)cn4)c3)s2)CC1(C)C (stereo not shown) [116A-22]
100 to 1000 nM		Cc1cc(Nc2ncc(F)c(O)n2)cc(-c2cnc(C3(O)CCC(C(=O)O)C(C)(C)C3)s2)c1 (stereo not shown) [116A-23]
< 100 nM		Cc1cc(Nc2nccc(C(=O)O)n2)cc(-c2cnc([C@@]3(O)CC[C@H](C(=O)O)C(C)(C)C3)s2)c1 [116A-24]
< 100 nM		COC(=O)C1CCC(O)(c2ncc(-c3cc(C)cc(Nc4ncc(F)c(C)n4)c3)s2)CC1(C)C (stereo not shown) [116A-25]
< 100 nM		Cc1cc(Nc2ncc(Cl)c(C)n2)cc(-c2cnc([C@@]3(O)CC[C@H](C(=O)O)C(C)(C)C3)s2)c1 [116A-27]
< 100 nM		COc1nc(Nc2cc(C)cc(-c3cnc(C4(O)CCC(C(=O)O)C(C)(C)C4)s3)c2)ncc1F (stereo not shown) [116A-28]
< 100 nM		Cc1cc(Nc2nccc(C(F)F)n2)cc(-c2cnc([C@@]3(O)CC[C@H](C(=O)O)C(C)(C)C3)s2)c1 [116A-30]
< 100 nM		Cc1cc(Nc2nccc(C3CCC3)n2)cc(-c2cnc([C@@]3(O)CC[C@H](C(=O)O)C(C)(C)C3)s2)c1 [116A-31]
< 100 nM		Cc1cc(Nc2nccc(C(C)(C)C)n2)cc(-c2cnc(C3(O)CCC(C(=O)O)C(C)(C)C3)s2)c1 (stereo not shown) [116A-32]
< 100 nM		Cc1cc(Nc2nccc(OC(C)C)n2)cc(-c2cnc([C@@]3(O)CC[C@H](C(=O)O)C(C)(C)C3)s2)c1 [116A-33]
100 to 1000 nM		COC(=O)C1CCC(O)(c2ncc(-c3cc(C)cc(Nc4ncc(Cl)c(C)n4)c3)s2)CC1(C)C (stereo not shown) [116A-34]
100 to 1000 nM		COC(=O)C1CCC(O)(c2ncc(-c3cc(C)cc(Nc4ncc(F)c(OC)n4)c3)s2)CC1(C)C (stereo not shown) [116A-35]
< 100 nM		COc1nc(Nc2cc(C)cc(-c3cnc(C4(O)CCC(C(=O)O)C(C)(C)C4)s3)c2)ncc1Cl (stereo not shown) [116A-36]
100 to 1000 nM		COC(=O)C1CCC(O)(c2ncc(-c3cc(C)cc(Nc4ncc(Cl)c(OC)n4)c3)s2)CC1(C)C (stereo not shown) [116A-38]
< 100 nM		Cc1cc(Nc2nccc([C@@H](C)F)n2)cc(-c2cnc([C@@]3(O)CC[C@H](C(=O)O)C(C)(C)C3)s2)c1 [116A-39]
